Measurements taken from PMC6321117, “Sulfonamide Inhibition Studies of a New β-Carbonic Anhydrase from the Pathogenic Protozoan Entamoeba histolytica” (International Journal of Molecular Sciences, 2018).
Where two headings read alike, the source gives them in different places.

Key:
[1] = target: T1, EhiCA (β-carbonic anhydrase) (Entamoeba histolytica, UniProt C4LXK3); assay: biochemical
T1 sequence (C4LXK3 1-188): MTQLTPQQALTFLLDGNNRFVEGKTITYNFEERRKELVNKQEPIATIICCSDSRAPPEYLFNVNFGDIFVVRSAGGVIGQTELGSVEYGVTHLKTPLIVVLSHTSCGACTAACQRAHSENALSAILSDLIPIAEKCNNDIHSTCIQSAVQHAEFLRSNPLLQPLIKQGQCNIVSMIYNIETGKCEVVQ
Experimental: An Sx.18Mv-R Applied Photophysics (Oxford, UK) stopped-flow instrument has been used to assay the catalytic activity of various CA isozymes for CO2 hydration reaction. […] The uncatalyzed rates were determined in the same manner and subtracted from the total observed rates. Stock solutions of inhibitors (0.1 mM) were prepared in distilled-deionized water, and dilutions up to 1 nM were done thereafter with the assay buffer. Enzyme and inhibitor solutions were pre-incubated together for 15 min before assay, to allow for the formation of the enzyme–inhibitor complex. The inhibition constants were obtained by non-linear least-squares methods using PRISM 3 and the Cheng–Prusoff equation, as reported earlier.

hCA I = details: human recombinant isozyme, α class, stopped flow CO2 hydrase assay; cited from earlier work

Compound | Ki [1] | Ki (hCA I) | also measured
Nc1ccc(S(N)(=O)=O)cc1 [Compound 2] | 6.01 µM |  | 
NS(=O)(=O)c1cccc(S(N)(=O)=O)c1 [Compound 3] |  | 0.079 µM | 
Cc1ccc(S(N)(=O)=O)cc1 [Compound 4] |  | 78.5 µM | 
O=C1NS(=O)(=O)c2ccccc21 [SAC, saccharin] |  | 18.5 µM | 
CC1(C)O[C@@H]2[C@@H](CO[C@@]3(COS(N)(=O)=O)OC(C)(C)O[C@@H]23)O1 [TPM, topiramate] |  |  | Ki ([1]; KI EhiCA, β class, stopped-flow CO2 hydrase assay, 3 different assays, errors 5–10%): 3.1 µM

Continued, in another order:

Ki [1] | Compound | Ki (hCA I) | also measured
0.383 µM | NS(=O)(=O)c1ccc(C(=O)O)cc1 [Compound 18, 4-carboxy-benzenesulfonamide] |  | 
0.79 µM | NS(=O)(=O)c1cc(Cl)c(Cl)c(S(N)(=O)=O)c1 [DCP, dichlorophenamide] |  | 
